What all share (experiment): 1H-15N HSQC NMR titration (CSP fitting)
Holding throughout (format): binding

For one test, the target named is T1, DC-SIGN CRD Q323A (Homo sapiens, UniProt Q9NNX6, Q323A).
T1 construct: acids 253-404 of DC-SIGN; His-tag (N); made in house
T1 sequence (Q9NNX6 253-404 Q323A limits assumed): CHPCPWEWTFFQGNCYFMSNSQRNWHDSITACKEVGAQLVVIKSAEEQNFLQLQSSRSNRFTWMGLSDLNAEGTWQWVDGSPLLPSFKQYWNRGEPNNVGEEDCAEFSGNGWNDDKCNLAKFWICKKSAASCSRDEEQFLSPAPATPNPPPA
As to the method:
(§1) 1H-15N HSQC NMR. 1H-15N HSQC NMR spectra were collected with 256 increments in the nitrogen and 24 scans per increment and 2048 points in the direct dimension. The relaxation delay d1 was set to 1.0 s. The W5 WATERGATE pulse sequence was used for solvent suppression.3, 4 Experiments were performed at a CRD concentration of 200 μM in 20 mM MES, 40 mM NaCl, 10 mM CaCl2 (pH 6.0) supplemented with 10% D 2O and, if applicable, varying concentrations of ligands. Samples of apo DC -SIGN CRD were prepared as described for 1H-13C HSQC NMR experiments. A previously published resonance assignment of DC-SIGN CRD was transferred to the nearest neighbor in a reference spectrum recorded without ligand.5 Unassigned, overlapping or disappearing peaks were not assigned.
(§2) CSPs induced by mutations or ligands were calculated as previously described according to […]
(§3) The empirical weighing factor a was set to 0.15 for all calculations.
(§4) Dissociation constants (K Ds) were determined in titration experiments at five ligand concentratio ns […]
(§5) in the fast exchange regime were used for the fitting procedure via equation 4 in a global two - […]
(§6) with CSP max corresponding to the CSP values upon saturation and the bound protein fraction p b […]
(§7) CHESPA was performed as previously described .7 The chemical shift vector between apo and holo wildtype DC -SIGN CRD was used as reference perturbation to calculate the vector product to […]

A further test deals with T2, DC-SIGN CRD M270F (Homo sapiens, UniProt Q9NNX6, M270F).
T2 construct: acids 253-404 of DC-SIGN; His-tag (N); made in house
T2 sequence (Q9NNX6 253-404 M270F): T1 sequence (Q9NNX6 253-404 Q323A limits assumed) with M18F, A71Q
As to the method: as §1, §2, §3, §4, §5, §6, §7

The next test deals with T3, DC-SIGN CRD F359L (Homo sapiens, UniProt Q9NNX6, F359L).
T3 construct: acids 253-404 of DC-SIGN; His-tag (N); made in house
T3 sequence (Q9NNX6 253-404 F359L): T1 sequence (Q9NNX6 253-404 Q323A limits assumed) with A71Q, F107L
As to the method: as §1, §2, §3, §4, §5, §6, §7

A further test addresses T4, DC-SIGN CRD W364F (Homo sapiens, UniProt Q9NNX6, W364F).
T4 construct: acids 253-404 of DC-SIGN; His-tag (N); made in house
T4 sequence (Q9NNX6 253-404 W364F): T1 sequence (Q9NNX6 253-404 Q323A limits assumed) with A71Q, W112F
As to the method: as §1, §2, §3, §4, §5, §6, §7

Another test concerns the target T5, DC-SIGN CRD T314A (Homo sapiens, UniProt Q9NNX6, T314A).
T5 construct: acids 253-404 of DC-SIGN; His-tag (N); made in house
T5 sequence (Q9NNX6 253-404 T314A): T1 sequence (Q9NNX6 253-404 Q323A limits assumed) with T62A, A71Q
As to the method: as §1, §2, §3, §4, §5, §6, §7

The target of the next test is T6, DC-SIGN CRD F313A (Homo sapiens, UniProt Q9NNX6, F313A).
T6 construct: acids 253-404 of DC-SIGN; His-tag (N); made in house
T6 sequence (Q9NNX6 253-404 F313A): T1 sequence (Q9NNX6 253-404 Q323A limits assumed) with F61A, A71Q
As to the method: as §1, §2, §3, §4, §5, §6, §7

In a further test the target is T7, DC-SIGN CRD E358A (Homo sapiens, UniProt Q9NNX6, E358A).
T7 construct: acids 253-404 of DC-SIGN; His-tag (N); made in house
T7 sequence (Q9NNX6 253-404 E358A): T1 sequence (Q9NNX6 253-404 Q323A limits assumed) with A71Q, E106A
As to the method:
as §1, §2, §3, §4, §5, §6, §7

A further test deals with T8, DC-SIGN CRD wildtype (Homo sapiens, UniProt Q9NNX6).
T8 construct: acids 253-404 of DC-SIGN; His-tag (N); made in house
T8 sequence (Q9NNX6 253-404): T1 sequence (Q9NNX6 253-404 Q323A limits assumed) with A71Q
As to the method:
as §1, §2, §3, §4, §5, §6, §7

For a further test, the target named is T9, DC-SIGN CRD I376V (Homo sapiens, UniProt Q9NNX6, I376V).
T9 construct: acids 253-404 of DC-SIGN; His-tag (N); made in house
T9 sequence (Q9NNX6 253-404 I376V limits assumed): T1 sequence (Q9NNX6 253-404 Q323A limits assumed) with A71Q, I124V
As to the method: as §1, §2, §3, §4, §5, §6, §7

SMILES strings stand for the structures. Numbering of substitutions follows the chain as printed.

On to `OC[C@H]1OC(O)[C@@H](O)[C@@H](O)[C@@H]1O` (stereo partly drawn) [mannose], for which the Kd on DC-SIGN CRD Q323A worked out at 3.5 ± 0.2 mM; on DC-SIGN CRD M270F, 2.9 ± 0.4 mM; at DC-SIGN CRD F359L, 8.2 ± 0.8 mM; on DC-SIGN CRD W364F it was 5 ± 0.9 mM; on DC-SIGN CRD T314A, 3.9 ± 0.1 mM; on DC-SIGN CRD F313A, 6 ± 0.5 mM. Also, the Kd at DC-SIGN CRD E358A worked out at 51.1 ± 4.9 mM; on DC-SIGN CRD wildtype, 3.3 ± 0.3 mM; at DC-SIGN CRD I376V, 3.4 ± 0.2 mM.
